Results on ten molecules are retold here after ChEMBL document CHEMBL1201862, “PubChem BioAssay data set” (2004).

Molecules are shown by their SMILES.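 Cultured in 96-well plates, cells were exposed to test compound for 48 hours across five concentrations. GI50 marks 50% less growth.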 The source made the active and inactive calls. Rule as the data show it: active = GI50 up to about 1.1 µM and inactive = higher.

Test systems include KM12; Hs-578T; EKVX; NCI-H23; HOP-62; PC-3; SK-MEL-2; NCI-H522; MDA-N; A498; MOLT-4; OVCAR-3; HOP-92; HL-60; SR; K562; NCI/ADR-RES; UACC-257; OVCAR-8.
Common to all, as to assay: DTP human tumour cell line panel, 48 h

With `CCC(=O)Nc1ccc(NCC(=O)Nc2ccc(Cl)cc2)cc1`, the GI50 in the assay with KM12 is 12.7 µM (inactive); with Hs-578T it was 37 µM (inactive); in the assay with EKVX, 14 µM (inactive); in the assay on NCI-H23 it was 18.5 µM (inactive); with HOP-62, 13.7 µM (inactive); in the assay with PC-3 it was 15.1 µM (inactive). The GI50 in the assay with SK-MEL-2 is 14.8 µM (inactive); in the assay on NCI-H522 it was 15 µM (inactive); with MDA-N, 17.2 µM (inactive); in the assay on A498 it was 17.7 µM (inactive); in the assay on MOLT-4, 21 µM (inactive); with OVCAR-3, 15.7 µM (inactive). For the same molecule, the GI50 with HOP-92 is 17.6 µM (inactive); in the assay with HL-60, 14.1 µM (inactive); with SR, 21.3 µM (inactive); with K562, 24 µM (inactive); in the assay with NCI/ADR-RES, 33.2 µM (inactive); in the assay with UACC-257, 16.6 µM (inactive). The GI50 with OVCAR-8 was 27.5 µM (inactive).

Regarding `COc1cc(S(=O)(=O)Nc2nc(-c3ccc(/N=C/c4ccccc4O)cc3)cs2)ccc1Cl`, the GI50 is 53.8 µM (inactive) in the assay on KM12; 38.2 µM (inactive) in the assay on Hs-578T; 23.4 µM (inactive) in the assay on EKVX; 36.3 µM (inactive) in the assay with NCI-H23; 40.3 µM (inactive) in the assay with HOP-62; 39.1 µM (inactive) in the assay with PC-3. Also, the GI50 in the assay with SK-MEL-2 is 34.7 µM (inactive); with NCI-H522, 33.7 µM (inactive); with MDA-N it was 30.5 µM (inactive); in the assay with A498, 41.7 µM (inactive); with MOLT-4, 27.5 µM (inactive); in the assay on OVCAR-3, 33 µM (inactive). Also, the GI50 in the assay on HOP-92 is 29 µM (inactive); with HL-60, 35.6 µM (inactive); in the assay on SR, 34.7 µM (inactive); with K562, 30.4 µM (inactive); in the assay with NCI/ADR-RES it was 50.5 µM (inactive); in the assay on UACC-257, 35.9 µM (inactive). For the same molecule, the GI50 with OVCAR-8 is 38.5 µM (inactive).

In the case of `CC(=O)CC(OC(C)=O)C1=CCC2C(CC1C)OC(=O)C2C` (stereo not given), the GI50 in the assay with KM12, in the assay on Hs-578T, in the assay on EKVX, in the assay on NCI-H23, with HOP-62 and in the assay with PC-3 was > 100 µM (inactive) each time. In addition, the GI50 in the assay on SK-MEL-2, in the assay on NCI-H522, in the assay on MDA-N, in the assay with A498, in the assay with MOLT-4 and in the assay on OVCAR-3 was > 100 µM (inactive) each time. Moreover, the GI50 in the assay with HOP-92 is > 100 µM (inactive); in the assay on HL-60 it was 40.6 µM (inactive); in the assay on SR, 78.9 µM (inactive); in the assay with K562 it was > 100 µM (inactive); with NCI/ADR-RES, > 100 µM (inactive); in the assay with UACC-257, > 100 µM (inactive). Besides, the GI50 in the assay on OVCAR-8 was > 100 µM (inactive).

Turning to `COc1ccc(C(=O)N/N=C2\C(=O)c3c(C)cc(C)cc3CC2(C)C)cc1`, the GI50 with KM12 is 19.1 µM (inactive); in the assay on Hs-578T it was 16.3 µM (inactive); in the assay with EKVX, 22.5 µM (inactive); in the assay with NCI-H23 it was 29.5 µM (inactive); with HOP-62, 18 µM (inactive); with PC-3, 22.2 µM (inactive). The GI50 with SK-MEL-2 is 18.9 µM (inactive); in the assay with NCI-H522, 15.3 µM (inactive); with MDA-N, 19.3 µM (inactive); with A498, 19.9 µM (inactive); in the assay with MOLT-4, 11.5 µM (inactive); in the assay on OVCAR-3, 15.6 µM (inactive). Further, the GI50 was 14.9 µM (inactive) with HOP-92; 18.3 µM (inactive) in the assay with HL-60; 18.5 µM (inactive) in the assay on SR; 16.7 µM (inactive) in the assay on K562; 22 µM (inactive) in the assay with NCI/ADR-RES; 29.8 µM (inactive) in the assay on UACC-257. Besides, the GI50 with OVCAR-8 was 20.9 µM (inactive).

For the molecule `O=C(OCC(OC(=O)c1ccccc1)C1CC(C(O)C2CCCCC2)C(=O)O1)c1ccccc1` (stereo not given), the GI50 was 41.8 µM (inactive) in the assay with KM12; > 100 µM (inactive) in the assay with Hs-578T; > 100 µM (inactive) in the assay on EKVX; > 100 µM (inactive) with NCI-H23; 49.5 µM (inactive) in the assay with HOP-62; 45.7 µM (inactive) in the assay on PC-3. For the same molecule, the GI50 in the assay on SK-MEL-2 is > 100 µM (inactive); with NCI-H522 it was 22.2 µM (inactive); in the assay with MDA-N, > 100 µM (inactive); in the assay on A498, > 100 µM (inactive); in the assay with MOLT-4, 22 µM (inactive); with OVCAR-3 it was 35.3 µM (inactive). The GI50 in the assay on HOP-92 was > 100 µM (inactive); in the assay on HL-60, 16.4 µM (inactive); with SR, 20.1 µM (inactive); in the assay with K562, 21.4 µM (inactive); with NCI/ADR-RES, 23.2 µM (inactive); with UACC-257 it was > 100 µM (inactive). Further, the GI50 in the assay on OVCAR-8 was 49.3 µM (inactive).

Regarding `C[C@@]12CCC3C1C=C1C(=O)c4cc(O)ccc4C(=O)[C@]1(O2)[C@@]3(C)C=O`, the GI50 in the assay on KM12 is 4.79 µM (inactive); in the assay on Hs-578T it was 16.2 µM (inactive); in the assay on EKVX it was 9.71 µM (inactive); with NCI-H23 it was 3.93 µM (inactive); in the assay with HOP-62, 8.59 µM (inactive); in the assay with PC-3, 7.8 µM (inactive). The GI50 was 8.91 µM (inactive) with SK-MEL-2; 2.94 µM (inactive) with NCI-H522; 3.48 µM (inactive) in the assay with MDA-N; 1.48 µM (inactive) in the assay on A498; 2.3 µM (inactive) in the assay on MOLT-4; 3.72 µM (inactive) with OVCAR-3. In addition, the GI50 was 10.3 µM (inactive) in the assay with HOP-92; 1.42 µM (inactive) in the assay on HL-60; 1.58 µM (inactive) in the assay on SR; 2.3 µM (inactive) in the assay on K562; 9.31 µM (inactive) in the assay on NCI/ADR-RES; 9.16 µM (inactive) with UACC-257. Also, the GI50 with OVCAR-8 was 6.01 µM (inactive).

As to `CC(=O)Nc1ccc(C2SCc3nc4ccccc4n32)cc1` (stereo not given), the GI50 with KM12 was > 100 µM (inactive); with Hs-578T, 41.9 µM (inactive); with EKVX, 87.9 µM (inactive); in the assay with NCI-H23, 34.6 µM (inactive); in the assay on HOP-62, > 100 µM (inactive); with PC-3, 87.7 µM (inactive). Besides, the GI50 in the assay with SK-MEL-2 was > 100 µM (inactive); with NCI-H522 it was 66.5 µM (inactive); in the assay with MDA-N, > 100 µM (inactive); in the assay with A498 it was 4.91 µM (inactive); in the assay on MOLT-4, > 100 µM (inactive); in the assay on OVCAR-3, > 100 µM (inactive). The GI50 was 57.7 µM (inactive) in the assay with HOP-92; 82 µM (inactive) with HL-60; > 77.1 µM (inactive) in the assay with SR; 66.8 µM (inactive) in the assay on K562; 33.5 µM (inactive) in the assay with NCI/ADR-RES; 57.4 µM (inactive) with UACC-257. In the assay on OVCAR-8, the GI50 is 37.7 µM (inactive).

As to `CC[C@H]1C=CCC[C@@]2(C[C@@H]3CC[C@H]4[C@@H](C(=O)OCCCCCCCCCCCCCCCC(=O)N(CCCN)C[C@@H](O)CCN)[C@@]5(CCC[C@@H](C)O5)NC(=[N+]34)N2)O1`, the GI50 in the assay on KM12 is 1.57 µM (inactive); in the assay on Hs-578T, 1.83 µM (inactive); with EKVX, 1.76 µM (inactive); with NCI-H23, 1.78 µM (inactive); with HOP-62 it was 1.69 µM (inactive); in the assay with PC-3 it was 1.62 µM (inactive). Also, the GI50 was 1.7 µM (inactive) in the assay on SK-MEL-2; 1.66 µM (inactive) in the assay on NCI-H522; 1.66 µM (inactive) in the assay on MDA-N; 3.01 µM (inactive) in the assay on A498; 1.23 µM (inactive) with MOLT-4; 3.91 µM (inactive) with OVCAR-3. In addition, the GI50 is 1.87 µM (inactive) with HOP-92; 2.14 µM (inactive) in the assay on HL-60; 1.85 µM (inactive) in the assay on SR; 1.48 µM (inactive) in the assay on K562; > 10 µM (inactive) in the assay on NCI/ADR-RES; 1.75 µM (inactive) in the assay with UACC-257. Besides, the GI50 with OVCAR-8 was 2.36 µM (inactive).

As to `CNC(=O)OCc1c(COC(=O)NC)c(-c2ccc(Cl)c(Cl)c2)n2c1SCC2`, the GI50 was 17.5 µM (inactive) with KM12; 21 µM (inactive) with Hs-578T; 19.8 µM (inactive) in the assay on EKVX; 21 µM (inactive) in the assay with NCI-H23; 17.8 µM (inactive) in the assay with HOP-62; 17.1 µM (inactive) with PC-3. Also, the GI50 with SK-MEL-2 was 11.7 µM (inactive); in the assay on NCI-H522 it was 8.85 µM (inactive); with MDA-N it was 18.5 µM (inactive); with A498, 0.836 µM (active); with MOLT-4, 12 µM (inactive); with OVCAR-3, 16.7 µM (inactive). In addition, the GI50 in the assay with HOP-92 was 10.6 µM (inactive); with HL-60, 7.29 µM (inactive); in the assay with SR it was 2.33 µM (inactive); with K562, 11 µM (inactive); with NCI/ADR-RES it was 16 µM (inactive); in the assay with UACC-257, 10.4 µM (inactive). Also, the GI50 in the assay with OVCAR-8 is 3.85 µM (inactive).

`O=C1CCc2ccc(O)c(c2)Oc2ccc(cc2)C(Sc2ccccc2)CCO1` (stereo not given): the GI50 with KM12 was 15 µM (inactive); with Hs-578T it was 14.7 µM (inactive); in the assay with EKVX it was 12.5 µM (inactive); in the assay on NCI-H23 it was 13.1 µM (inactive); with HOP-62, 12.9 µM (inactive); in the assay on PC-3, 6.32 µM (inactive). Also, the GI50 in the assay with SK-MEL-2 was 15.8 µM (inactive); with NCI-H522, 13.2 µM (inactive); in the assay with MDA-N, 16.2 µM (inactive); in the assay on A498 it was 17.4 µM (inactive); with MOLT-4 it was 22.1 µM (inactive); in the assay on OVCAR-3, 10.9 µM (inactive). Besides, the GI50 with HOP-92 is 10 µM (inactive); with HL-60, 17.7 µM (inactive); with SR it was 13.1 µM (inactive); with K562, 15.7 µM (inactive); in the assay on NCI/ADR-RES, 14.1 µM (inactive); in the assay on UACC-257 it was 16 µM (inactive). Also, the GI50 in the assay on OVCAR-8 is 18.1 µM (inactive).

The GI50 is the concentration at which growth is held to half of that of the control.
